According to publication PMC6713165, “Identification of 1H-pyrazolo[3,4-b]pyridine derivatives as potent ALK-L1196M inhibitors” (Journal of Enzyme Inhibition and Medicinal Chemistry, 2019):
Where two headings read alike, the source gives them in different places.

Tests used:
H2228 (EML4-ALK) cells = assay: Anti-proliferation assay (CTG), H2228; assay type: cell-based; details: mean ± SD of three independent experiments; for GI50: Homo sapiens, NCI-H2228, 72 h; for GI50 H2228 (EML4-ALK): 72 h
Experimental: (§1) ALK wt-TEL, ALK L1196M-TEL transformed Ba/F3 and H2228 cell lines were cultured in RPMI1640 (Welgene, # LM011-01). […] Parental Ba/F3 cells were cultured in RPMI1640 media supplemented with 10% foetal bovine serum and 1% penicillin/streptomycin solution in the presence of IL-3. The cells were maintained in a humidified atmosphere containing 5% CO2 at 37 °C.
(§2) Cells (ALK wt-TEL, ALK L1196M-TEL and Parental Ba/F3: 1 × 10^4, H2228: 5 × 10^3) were plated in 96 well tissue culture plates. Each compound was added to each well at 10 dose points of three-fold serial dilution in DMSO. After treatment with each compound for 72 h, CTG assay solution (Promega, # G7572) was added to each well.

Parental Ba/F3 cells = assay: Anti-proliferation assay (CTG), parental Ba/F3; assay type: cell-based; details: with IL-3, mean ± SD of three independent experiments; for GI50 Ba/F3 cell lines Parental: 72 h; for GI50: Mus musculus, BaF3, 72 h, read-out: GI50 Ba/F3 cell lines Parental
Experimental: as §1, §2

ALK wt-TEL Ba/F3 cells = assay: Anti-proliferation assay (CTG), ALK wt-TEL Ba/F3; assay type: cell-based; details: 72 h, CTG, mean ± SD of three independent experiments; for GI50: Mus musculus, BaF3, read-out: GI50 Ba/F3 cell lines ALK wt-TEL
Experimental: as §1, §2

[1] = tested on: ALK L1196M-TEL Ba/F3 cells; assay: Anti-proliferation assay (CTG), ALK L1196M-TEL Ba/F3; assay type: cell-based; details: for GI50: Mus musculus, BaF3, read-out: GI50 Ba/F3 cell lines ALKL1196M-TEL; for differential cytotoxicity against ALK-L1196M Ba/F3 cells vs. parental Ba/F3 cells compared with crizotinib: in words
Experimental: as §1, §2

[2] = Permeability assessment using Caco-2 cells; assay type: in vitro ADME, human; details: human; for efflux ratio at 120 min, 10 µM / Papp B→A at 120 min, 10 µM: Caco-2, 10 µM
Experimental: (§3) Stock solutions (10 mM) of reference compounds and 10g were diluted to a concentration of 10 µM with the transport buffer (HBSS + 1%BSA) and the test compounds were applied to the apical or basolateral side of the cell monolayer. […] In addition, the efflux ratio of each compound was also determined. Reference compounds and 10g were quantified by LC-MS/MS analysis based on the peak area ratio of analyte/the internal standard.

ALK-wt = ALK-wt (Homo sapiens, UniProt Q9UM73); assay: Radiometric biochemical kinase assay, ALK-wt; details: radiometric kinase assay, 10 µM ATP; for IC50: read-out: IC50 ALK-wt
Experimental: (§4) Biochemical kinase assay was performed by methods previously reported. Kinase reactions of all test compounds except 10g were carried out at 10 µM ATP. Kinase reaction of 10g was performed at three different concentrations of ATP (10/50/100 µM).

ALK-L1196M = ALK-L1196M (Homo sapiens, UniProt Q9UM73, L1196M); assay: Radiometric biochemical kinase assay, ALK-L1196M; details: for IC50: radiometric kinase assay, 10 µM ATP
Experimental: as §4

Caco-2 cells = assay: Permeability assessment using Caco-2 cells; assay type: in vitro ADME, human; details: P-gp substrate status from efflux ratio
Experimental: as §3

[3] = 72 h, CTG, mean ± SD of three independent experiments
[4] = Caco-2, Caco-2, 10 µM, 120 min, 37 °C, HBSS + 1%BSA, read-out: Mean Papp A to B
[5] = Caco-2, Caco-2, 10 µM, 120 min, read-out: Mean recovery % A to B
[6] = Caco-2, Caco-2, 10 µM, 120 min, read-out: Mean recovery % B to A
[7] = Caco-2, Caco-2 permeability class from Papp (A to B), read-out: Rank Papp

Chain of ALK-wt (Q9UM73 19-1620): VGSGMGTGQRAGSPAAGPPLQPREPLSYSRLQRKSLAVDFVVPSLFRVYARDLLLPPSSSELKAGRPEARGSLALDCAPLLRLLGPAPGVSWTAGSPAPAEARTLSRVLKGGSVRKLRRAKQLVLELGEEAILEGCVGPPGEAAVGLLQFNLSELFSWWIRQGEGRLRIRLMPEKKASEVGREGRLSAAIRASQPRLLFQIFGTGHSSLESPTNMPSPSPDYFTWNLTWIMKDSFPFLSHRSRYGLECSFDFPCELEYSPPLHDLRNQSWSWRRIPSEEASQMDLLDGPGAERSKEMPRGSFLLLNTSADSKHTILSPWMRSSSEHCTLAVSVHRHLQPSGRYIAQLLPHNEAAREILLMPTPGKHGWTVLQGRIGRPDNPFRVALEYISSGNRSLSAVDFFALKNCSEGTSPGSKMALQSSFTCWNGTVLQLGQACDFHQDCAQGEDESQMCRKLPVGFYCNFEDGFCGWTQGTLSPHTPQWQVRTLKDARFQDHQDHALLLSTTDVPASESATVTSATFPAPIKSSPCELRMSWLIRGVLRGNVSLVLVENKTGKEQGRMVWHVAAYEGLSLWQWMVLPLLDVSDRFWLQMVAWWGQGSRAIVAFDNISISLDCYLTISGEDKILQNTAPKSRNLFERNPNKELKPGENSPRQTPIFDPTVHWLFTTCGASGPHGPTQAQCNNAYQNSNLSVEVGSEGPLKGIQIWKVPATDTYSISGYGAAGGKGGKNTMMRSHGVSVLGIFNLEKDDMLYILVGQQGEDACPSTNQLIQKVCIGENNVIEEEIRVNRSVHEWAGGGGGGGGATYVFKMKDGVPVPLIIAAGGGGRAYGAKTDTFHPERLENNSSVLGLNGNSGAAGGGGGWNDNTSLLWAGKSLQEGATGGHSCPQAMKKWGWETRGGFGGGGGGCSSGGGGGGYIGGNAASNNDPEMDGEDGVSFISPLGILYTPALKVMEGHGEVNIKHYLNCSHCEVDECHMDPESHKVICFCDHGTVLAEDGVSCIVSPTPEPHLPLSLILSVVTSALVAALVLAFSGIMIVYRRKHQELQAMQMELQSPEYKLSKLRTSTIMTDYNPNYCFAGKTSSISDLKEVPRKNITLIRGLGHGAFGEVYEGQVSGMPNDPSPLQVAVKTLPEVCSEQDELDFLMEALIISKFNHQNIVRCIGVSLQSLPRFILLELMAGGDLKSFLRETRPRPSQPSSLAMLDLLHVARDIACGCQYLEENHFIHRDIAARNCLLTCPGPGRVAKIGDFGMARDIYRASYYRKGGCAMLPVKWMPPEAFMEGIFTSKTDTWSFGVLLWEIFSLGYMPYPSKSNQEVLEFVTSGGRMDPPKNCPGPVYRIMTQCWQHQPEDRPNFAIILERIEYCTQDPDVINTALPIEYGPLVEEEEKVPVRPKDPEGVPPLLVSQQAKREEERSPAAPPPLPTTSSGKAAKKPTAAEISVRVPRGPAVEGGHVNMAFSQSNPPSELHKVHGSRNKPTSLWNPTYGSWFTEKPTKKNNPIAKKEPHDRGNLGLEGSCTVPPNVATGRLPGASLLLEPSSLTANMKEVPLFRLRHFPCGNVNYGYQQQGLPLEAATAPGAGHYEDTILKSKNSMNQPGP
Chain of ALK-L1196M (Q9UM73 19-1620 L1196M): as the sequence (Q9UM73 19-1620) above, with L1178M counted along it

SMILES: Nc1ccc(C(=O)Nc2n[nH]c3ncc(S(=O)(=O)c4cccc(F)c4)cc23)cc1 [compound 12, 4-Amino-N-(5-((3-fluorophenyl)sulfonyl)-1H-pyrazolo[3,4-b]pyridin-3-yl)benzamide]
- GI50 (H2228 (EML4-ALK) cells): 4030 ± 1810 nM
- GI50 Ba/F3 cell lines Parental (Parental Ba/F3 cells): Inactive
- GI50 (ALK wt-TEL Ba/F3 cells): 3870 ± 1540 nM
- GI50 [1, 3]: 1980 ± 280 nM
- differential cytotoxicity against ALK-L1196M Ba/F3 cells vs. parental Ba/F3 cells compared with crizotinib [1]: higher differential cytotoxicities

SMILES: CC(C)NCC(O)COc1cccc2ccccc12 (centres unmarked) [Propranolol]
- Papp A→B at 120 min, 10 µM [2, 4]: 16.1 ×10⁻⁶ cm/s
- recovery at 120 min, 10 µM [2, 5]: 84.8%
- recovery at 120 min, 10 µM [2, 6]: 91.7%
- Papp A→B at 120 min, 10 µM [2, 7]: > 10 ×10⁻⁶ cm/s
- efflux ratio at 120 min, 10 µM ([2]; 120 min): 0.52
- Papp B→A at 120 min, 10 µM ([2]; 120 min, 37 °C, HBSS + 1%BSA): 8.42 ×10⁻⁶ cm/s

SMILES: CN1CCN(c2cccc(C(=O)Nc3n[nH]c4ncc(S(=O)(=O)c5cccc(F)c5)cc34)c2)CC1 [10h, N-(5-((3-Fluorophenyl)sulfonyl)-1H-pyrazolo[3,4-b]pyridin-3-yl)-3–(4-methylpiperazin-1-yl)benzamide]
- GI50 H2228 (EML4-ALK) (H2228 (EML4-ALK) cells): Inactive
- GI50 (Parental Ba/F3 cells): 15200 ± 520 nM
- GI50 (ALK wt-TEL Ba/F3 cells): 3350 ± 240 nM
- GI50 [1, 3]: 2280 ± 590 nM
- differential cytotoxicity against ALK-L1196M Ba/F3 cells vs. parental Ba/F3 cells compared with crizotinib [1]: higher differential cytotoxicities

SMILES: COc1ccc(C(=O)Nc2n[nH]c3ncc(S(=O)(=O)c4cccc(F)c4)cc23)cc1 [10d, N-(5-((3-Fluorophenyl)sulfonyl)-1H-pyrazolo[3,4-b]pyridin-3-yl)-4-methoxybenzamide]
- IC50 (ALK-wt): 69 nM
- activity against ALK-L1196M relative to crizotinib (ALK-L1196M; IC50 19 nM vs 980 nM of crizotinib): 50 fold
- IC50 (ALK-L1196M): 19 nM
- GI50 H2228 (EML4-ALK) (H2228 (EML4-ALK) cells): Inactive
- GI50 Ba/F3 cell lines Parental (Parental Ba/F3 cells): Inactive
- GI50 Ba/F3 cell lines ALK wt-TEL (ALK wt-TEL Ba/F3 cells): Inactive
- GI50 Ba/F3 cell lines ALKL1196M-TEL [1, 3]: Inactive

SMILES: N#Cc1ccc(C(=O)Nc2n[nH]c3ncc(S(=O)(=O)c4cccc(F)c4)cc23)cc1 [10a, 4-Cyano-N-(5-((3-fluorophenyl)sulfonyl)-1H-pyrazolo[3,4-b]pyridin-3-yl)benzamide]
- IC50 (ALK-wt): 453 nM

SMILES: O=C(Nc1n[nH]c2ncc(S(=O)(=O)c3cccc(F)c3)cc12)c1ccc(C(F)(F)F)cc1 [10c, N-(5-((3-Fluorophenyl)sulfonyl)-1H-pyrazolo[3,4-b]pyridin-3-yl)-4-(trifluoromethyl)benzamide]
- IC50 ALK-wt (ALK-wt): little to no activity

SMILES: CS(=O)(=O)Nc1ccc(C(=O)Nc2n[nH]c3ncc(S(=O)(=O)c4cccc(F)c4)cc23)cc1 [13c, N-(5-((3-Fluorophenyl)sulfonyl)-1H-pyrazolo[3,4-b]pyridin-3-yl)-4-(methylsulfonamido)benzamide]
- GI50 (H2228 (EML4-ALK) cells): 9220 ± 1920 nM
- GI50 Ba/F3 cell lines Parental (Parental Ba/F3 cells): inactive
- GI50 (ALK wt-TEL Ba/F3 cells): 4710 ± 3020 nM
- GI50 [1, 3]: 5620 ± 2340 nM
- differential cytotoxicity against ALK-L1196M Ba/F3 cells vs. parental Ba/F3 cells compared with crizotinib [1]: higher differential cytotoxicities

SMILES: C[C@H]1O[C@@H](O[C@H]2[C@@H](O)C[C@H](O[C@H]3[C@@H](O)C[C@H](O[C@H]4CC[C@@]5(C)[C@H](CC[C@@H]6[C@@H]5C[C@@H](O)[C@]5(C)[C@@H](C7=CC(=O)OC7)CC[C@]65O)C4)O[C@@H]3C)O[C@@H]2C)C[C@H](O)[C@@H]1O [Digoxin]
- Papp A→B at 120 min, 10 µM [2, 4]: 0.43 ×10⁻⁶ cm/s
- recovery at 120 min, 10 µM [2, 5]: 96.8%
- recovery at 120 min, 10 µM [2, 6]: 95.1%
- Papp A→B at 120 min, 10 µM [2, 7]: < 2.5 ×10⁻⁶ cm/s
- efflux ratio at 120 min, 10 µM ([2]; 120 min): 20.2
- Papp B→A at 120 min, 10 µM ([2]; 120 min, 37 °C, HBSS + 1%BSA): 8.6 ×10⁻⁶ cm/s
- Rank P-gp (Caco-2 cells): Substrate

SMILES: CN(C)c1ccc(C(=O)Nc2n[nH]c3ncc(S(=O)(=O)c4cccc(F)c4)cc23)cc1 [10e, 4-(Dimethylamino)-N-(5-((3-fluorophenyl)sulfonyl)-1H-pyrazolo[3,4-b]pyridin-3-yl)benzamide]
- IC50 (ALK-wt): 7.3 nM
- IC50 (ALK-L1196M): 0.7 nM
- GI50 (H2228 (EML4-ALK) cells): 8540 ± 780 nM
- GI50 Ba/F3 cell lines Parental (Parental Ba/F3 cells): Inactive
- GI50 (ALK wt-TEL Ba/F3 cells): 1770 ± 690 nM
- GI50 [1, 3]: 4550 ± 720 nM
- differential cytotoxicity against ALK-L1196M Ba/F3 cells vs. parental Ba/F3 cells compared with crizotinib [1]: higher differential cytotoxicities

SMILES: O=C(Nc1n[nH]c2ncc(S(=O)(=O)c3cccc(F)c3)cc12)c1ccc(N2CCOCC2)cc1 [10f, N-(5-((3-Fluorophenyl)sulfonyl)-1H-pyrazolo[3,4-b]pyridin-3-yl)-4-morpholinobenzamide]
- IC50 ALK-wt (ALK-wt): Picomolar inhibitory activity
- IC50 (ALK-L1196M): 1.4 nM
- GI50 (H2228 (EML4-ALK) cells): 1690 ± 400 nM
- GI50 Ba/F3 cell lines Parental (Parental Ba/F3 cells): Inactive
- GI50 (ALK wt-TEL Ba/F3 cells): 916 ± 500 nM
- GI50 [1, 3]: 2530 ± 1500 nM
- differential cytotoxicity against ALK-L1196M Ba/F3 cells vs. parental Ba/F3 cells compared with crizotinib [1]: higher differential cytotoxicities

SMILES: C[C@@H](Oc1cc(-c2cnn(C3CCNCC3)c2)cnc1N)c1c(Cl)ccc(F)c1Cl [crizotinib, reference compound]
- GI50 (Parental Ba/F3 cells): 1650 ± 130 nM

SMILES: O=C(Nc1n[nH]c2ncc(S(=O)(=O)c3cccc(F)c3)cc12)c1cccc(C(F)(F)F)c1 [10b, N-(5-((3-Fluorophenyl)sulfonyl)-1H-pyrazolo[3,4-b]pyridin-3-yl)-3-(trifluoromethyl)benzamide]
- IC50 ALK-wt (ALK-wt): little to no activity
